Source: ChEMBL document CHEMBL5375980, “PSMA-targeted small-molecule drug-conjugates with valine-citrulline and phosphoramidate cleavable linkers” (Bioorg Med Chem Lett, 2024)
Active and inactive are the calls of the source. The calls are words filed in the database; no cut-off is given here. Where a SMILES comes first, the peptide text is derived from it. [ ]: non-standard residue; d: D form. The star is where a group is joined. Dolaproine = CO[C@@H]([C@@H]1CCCN1)[C@@H](C)C(=O)O; Dil = CC[C@H](C)[C@H](NC)[C@@H](CC(=O)O)OC; X1 = C[C@@H](N*)[C@@H](O)c1ccccc1; NMeV = CN[C@H](C(=O)O)C(C)C

How the values were obtained:
[1] = Anticancer activity against PMSA positive human PC3-PIP cells assessed as cell viability at 10 nM incubated for 72 hrs by CellTiter-Glo Luminescent Cell Viability assay relative to control; assay type: functional; conditions: read-out: Activity
LNCaP C4-2B [2] = test: Anticancer activity against PSMA positive human LNCaP C4-2B cells assessed as cell viability at 10 nM incubated for 72 hrs by CellTiter-Glo Luminescent Cell Viability assay relative to control; assay type: functional; conditions: read-out: Activity
PC-3 [3] = test: Anticancer activity against PMSA negative human PC-3 cells assessed as cell viability at 10 nM incubated for 72 hrs by CellTiter-Glo Luminescent Cell Viability assay relative to control; assay type: functional; conditions: read-out: Activity
PC-3 [4] = test: Anticancer activity against PMSA negative human PC-3 cells assessed as reduction in cell viability at 10 nM incubated for 72 hrs by CellTiter-Glo Luminescent Cell Viability assay; assay type: functional, cell-based
LNCaP C4-2B [5] = test: Anticancer activity against PSMA positive human LNCaP C4-2B cells assessed as reduction in cell viability incubated for 72 hrs by CellTiter-Glo Luminescent Cell Viability assay; assay type: functional, cell-based; conditions: dose […]
PC3-PIP cell = test: Anticancer activity against PSMA positive human PC3-PIP cells assessed as reduction in cell viability incubated for 72 hrs by CellTiter-Glo Luminescent Cell Viability assay; assay type: functional, cell-based; conditions: dose 4-100 µM
LNCaP C4-2B [6] = test: Anticancer activity against PSMA positive human LNCaP C4-2B cells assessed as cell viability at 100 nM incubated for 72 hrs by CellTiter-Glo Luminescent Cell Viability assay relative to control; assay type: functional; conditions: read-out: Activity
LNCaP C4-2B [7] = test: Anticancer activity against PSMA positive human LNCaP C4-2B cells assessed as cell viability at 20 nM incubated for 72 hrs by CellTiter-Glo Luminescent Cell Viability assay relative to control; assay type: functional; conditions: read-out: Activity
[8] = Anticancer activity against PSMA positive human PC3-PIP cells assessed as cell viability at 4 nM incubated for 72 hrs by CellTiter-Glo Luminescent Cell Viability assay relative to control; assay type: functional; conditions: read-out: Activity
LNCaP C4-2B [9] = test: Anticancer activity against PSMA positive human LNCaP C4-2B cells assessed as reduction in cell viability at 10 nM incubated for 72 hrs by CellTiter-Glo Luminescent Cell Viability assay; assay type: functional, cell-based
[10] = Anticancer activity against PSMA positive human PC3-PIP cells assessed as cell viability at 100 nM incubated for 72 hrs by CellTiter-Glo Luminescent Cell Viability assay relative to control; assay type: functional; conditions: read-out: Activity

Row | Structure (SMILES) | viability at 0.01 µM [1] [%] | viability at 0.01 µM (LNCaP C4-2B [2]) [%] | viability at 0.01 µM (PC-3 [3]) [%] | Activity (PC-3 [4]) | Activity (LNCaP C4-2B [5]) | Activity (PC3-PIP cell) | viability at 0.1 µM (LNCaP C4-2B [6]) [%] | viability at 0.02 µM (LNCaP C4-2B [7]) [%] | viability at 0.004 µM [8] [%] | Activity (LNCaP C4-2B [9]) | viability at 0.1 µM [10] [%]
1 | CC[C@H](C)[C@@H]([C@@H](CC(=O)N1CCC[C@H]1[C@H](OC)[C@@H](C)C(=O)N[C@H](C)[C@@H](O)c1ccccc1)OC)N(C)C(=O)[C@@H](NC(=O)[C@@H](NC)C(C)C)C(C)C (H-[NMeV]V[Dil][Dolaproine]-X1) | < 50 | < 50 | < 50 | – | – | – | – | – | – | – | –
2 | CC[C@H](C)[C@@H]([C@@H](CC(=O)N1CCC[C@H]1[C@H](OC)[C@@H](C)C(=O)N[C@H](C)[C@@H](O)c1ccccc1)OC)N(C)C(=O)[C@@H](NC(=O)[C@H](C(C)C)N(C)C(=O)OCc1ccc(OC(=O)N(C)CCN(C)P(=O)(O)OCC[C@H](NC(=O)c2ccc(Cn3nnc4c3-c3ccccc3N(C(=O)CCC(=O)NCCOCCOCCOCCOCCC(=O)NCCCCCC(=O)N[C@@H](CCC(=O)N[C@@H](CCCOP(=O)(O)N[C@@H](CCC(=O)O)C(=O)O)C(=O)O)C(=O)O)c3ccccc3-4)cc2)C(=O)O)cc1)C(C)C | 47.2 | 58.8 | – | inactive | Dose-Dependent Effect | Dose-Dependent Effect | 7.44 | 28.7 | – | – | –
3 | CC[C@H](C)[C@@H]([C@@H](CC(=O)N1CCC[C@H]1[C@H](OC)[C@@H](C)C(=O)N[C@H](C)[C@@H](O)c1ccccc1)OC)N(C)C(=O)[C@@H](NC(=O)[C@H](C(C)C)N(C)C(=O)OCc1ccc(NC(=O)[C@H](CCCNC(N)=O)NC(=O)[C@@H](NC(=O)c2ccc(Cn3nnc4c3-c3ccccc3N(C(=O)CCC(=O)NCCOCCOCCOCCOCCC(=O)NCCCCCC(=O)N[C@@H](CCC(=O)N[C@@H](CCCOP(=O)(O)N[C@@H](CCC(=O)O)C(=O)O)C(=O)O)C(=O)O)c3ccccc3-4)cc2)C(C)C)cc1)C(C)C | < 50 | – | – | inactive | – | – | – | – | 80.9 | inactive | 25.8
